This is an account of results in patent US9951065B2 (Gilead Sciences, Inc., priority 2015, dated 2018).

In this assay the target is T1, IDO1 (Homo sapiens, UniProt P14902).
T1 construct: HeLa cells were treated with a test compound in the presence of IFNγ, which induces IDO1 expression; host or cells: H1-HeLa cells, IDO1 induced with IFNγ
T1 sequence (P14902 whole entry): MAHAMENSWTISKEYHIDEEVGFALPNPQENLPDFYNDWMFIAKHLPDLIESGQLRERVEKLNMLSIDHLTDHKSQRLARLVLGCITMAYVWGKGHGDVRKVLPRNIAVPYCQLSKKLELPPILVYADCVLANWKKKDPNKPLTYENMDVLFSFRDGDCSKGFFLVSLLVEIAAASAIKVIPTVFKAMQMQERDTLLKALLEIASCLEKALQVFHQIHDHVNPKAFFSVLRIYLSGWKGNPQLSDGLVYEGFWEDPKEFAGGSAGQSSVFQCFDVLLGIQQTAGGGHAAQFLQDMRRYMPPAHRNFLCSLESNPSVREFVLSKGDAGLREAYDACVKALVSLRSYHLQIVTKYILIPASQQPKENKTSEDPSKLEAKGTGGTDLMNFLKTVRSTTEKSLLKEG
The assay is described as follows: Cell-based (HeLa) assay for measurement of IDO1 inhibition (kynurenine levels in supernatant after IFNγ induction). The settings on record: HeLa cells, IFNγ-induced IDO1, kynurenine in supernatant after 48 hour incubation; geometric mean of a minimum of four determinations. The method in brief: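 IDO1 activity is read as kynurenine released into the medium, detected with Ehrlich's reagent (p-dimethylaminobenzaldehyde) at 480 nm after TCA treatment. HeLa cells were exposed 48 h to compounds in 0.5% DMSO alongside IFNγ induction. Values normalized to no-IFNγ and IFNγ controls; four-parameter EC50 given as geometric mean of ≥4 determinations.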
For the molecule `O/N=C(\Nc1ccc(F)c(C2CC2)c1)c1ccnc2nc[nH]c12` [Example 65, N-(3-Cyclopropyl-4-fluorophenyl)-N′-hydroxy-1H-imidazo[4,5-b]pyridine-7-carboximidamide], the EC50 (as a rule, the midpoint of the concentration-response curve) is 1810 nM. Consider `O/N=C(\Nc1ccc(OC(F)(F)F)cc1)c1ccnc2nc[nH]c12` [Example 66, N′-Hydroxy-N-(4-(trifluoromethoxy)phenyl)-1H-imidazo[4,5-b]pyridine-7-carboximidamide], for which the EC50 was 4870 nM. For `O/N=C(\Nc1cccc2occc12)c1ccnc2nc[nH]c12` [Example 67, N-(Benzofuran-4-yl)-N′-hydroxy-1H-imidazo[4,5-b]pyridine-7-carboximidamide] the value was 583 nM.

In turn, `O/N=C(\Nc1ccc2ccoc2c1)c1ccnc2nc[nH]c12` [Example 68, N-(Benzofuran-6-yl)-N′-hydroxy-1H-imidazo[4,5-b]pyridine-7-carboximidamide] came in with an EC50 of 890 nM. In the case of `O/N=C(\Nc1cccc2ccoc12)c1ccnc2nc[nH]c12` [Example 69, N-(Benzofuran-7-yl)-N′-hydroxy-1H-imidazo[4,5-b]pyridine-7-carboximidamide] it was 1340 nM; in that of `O/N=C(\Nc1ccc2occc2c1)c1ccnc2nc[nH]c12` [Example 70, N-(benzofuran-5-yl)-N′-hydroxy-1H-imidazo[4,5-b]pyridine-7-carboximidamide], 1480 nM; in that of `O/N=C(\Nc1cc(Br)ccc1F)c1ccnc2nc[nH]c12` [Example 71, N-(5-Bromo-2-fluorophenyl)-N′-hydroxy-1H-imidazo[4,5-b]pyridine-7-carboximidamide], 207 nM. In the case of `O/N=C(\Nc1cc(F)cc(Br)c1)c1ccnc2nc[nH]c12` [Example 72, N-(3-Bromo-5-fluorophenyl)-N′-hydroxy-1H-imidazo[4,5-b]pyridine-7-carboximidamide] it was 280 nM; in that of `O/N=C(\Nc1cccc(C(F)(F)F)c1)c1ccnc2nc[nH]c12` [Example 73, N′-Hydroxy-N-(3-(trifluoromethyl)phenyl)-1H-imidazo[4,5-b]pyridine-7-carboximidamide], 373 nM. For `O/N=C(\Nc1ccc2c(c1)OC(F)(F)O2)c1ccnc2nc[nH]c12` [Example 74, N-(2,2-Difluorobenzo[d][1,3]dioxol-5-yl)-N′-hydroxy-1H-imidazo[4,5-b]pyridine-7-carboximidamide] the value was 923 nM. `O/N=C(\Nc1cc(F)cc(C(F)(F)F)c1)c1ccnc2nc[nH]c12` [Example 75, N-(3-Fluoro-5-(trifluoromethyl)phenyl)-N′-hydroxy-1H-imidazo[4,5-b]pyridine-7-carboximidamide] came in with an EC50 of 2110 nM.

In the case of `O/N=C(\Nc1cc(Cl)ccc1Cl)c1ccnc2nc[nH]c12` [Example 76, N-(2,5-Dichlorophenyl)-N′-hydroxy-1H-imidazo[4,5-b]pyridine-7-carboximidamide], the response was half-maximal at 769 nM (EC50).

Consider `O/N=C(\Nc1ccc(F)c(-c2ccccc2)c1)c1ccnc2nc[nH]c12` [Example 77, N-(6-Fluoro-[1,1′-biphenyl]-3-yl)-N′-hydroxy-1H-imidazo[4,5-b]pyridine-7-carboximidamide], for which the response was half-maximal at 2290 nM (EC50). Turning to `CCC#Cc1cc(N/C(=N\O)c2ccnc3nc[nH]c23)ccc1F` [Example 78, N-(3-(But-1-yn-1-yl)-4-fluorophenyl)-N′-hydroxy-1H-imidazo[4,5-b]pyridine-7-carboximidamide], the response was half-maximal at 2640 nM (EC50). In the case of `O/N=C(\Nc1ccc(F)c(C#CC2CC2)c1)c1ccnc2nc[nH]c12` [Example 79, N-(3-(Cyclopropylethynyl)-4-fluorophenyl)-N′-hydroxy-1H-imidazo[4,5-b]pyridine-7-carboximidamide] it was 3220 nM. For `O/N=C(\Nc1cccc(Br)c1)c1ccnc2nc[nH]c12` [Example 80, N-(3-Bromophenyl)-N′-hydroxy-1H-imidazo[4,5-b]pyridine-7-carboximidamide] the value was 111 nM.

`O/N=C(\Nc1ccc(F)c(Br)c1)c1ccnc2nc[nH]c12` [Example 81, N-(3-Bromo-4-fluorophenyl)-N′-hydroxy-1H-imidazo[4,5-b]pyridine-7-carboximidamide] showed an EC50 of 140 nM. For `O/N=C(\Nc1cccc(Cl)c1)c1ccnc2nc[nH]c12` [Example 82, N-(3-Chlorophenyl)-N′-hydroxy-1H-imidazo[4,5-b]pyridine-7-carboximidamide] the value was 160 nM; for `O/N=C(\Nc1ccc(F)c(C(F)(F)F)c1)c1ccnc2nc[nH]c12` [Example 83, N-(4-Fluoro-3-(trifluoromethyl)phenyl)-N′-hydroxy-1H-imidazo[4,5-b]pyridine-7-carboximidamide], 315 nM; for `CC#Cc1cc(N/C(=N\O)c2ccnc3nc[nH]c23)ccc1F` [Example 84, N-(4-Fluoro-3-(prop-1-yn-1-yl)phenyl)-N′-hydroxy-1H-imidazo[4,5-b]pyridine-7-carboximidamide], 445 nM. For `O/N=C(\Nc1ccc(Cl)c(Br)c1)c1ccnc2nc[nH]c12` [Example 85, N-(3-Bromo-4-chlorophenyl)-N′-hydroxy-1H-imidazo[4,5-b]pyridine-7-carboximidamide] the value was 462 nM; for `O/N=C(\Nc1ccc(Cl)c(Cl)c1)c1ccnc2nc[nH]c12` [Example 86, N-(3,4-Dichlorophenyl)-N′-hydroxy-1H-imidazo[4,5-b]pyridine-7-carboximidamide], 639 nM; for `O/N=C(\Nc1ccc(Cl)cc1)c1ccnc2nc[nH]c12` [Example 87, N-(4-Chlorophenyl)-N′-hydroxy-1H-imidazo[4,5-b]pyridine-7-carboximidamide], 846 nM. For `O/N=C(\Nc1ccc(Br)cc1)c1ccnc2nc[nH]c12` [Example 88, N-(4-Bromophenyl)-N′-hydroxy-1H-imidazo[4,5-b]pyridine-7-carboximidamide] the value was 916 nM; for `O/N=C(\Nc1ccc(F)cc1)c1ccnc2nc[nH]c12` [Example 89, N-(4-Fluorophenyl)-N′-hydroxy-1H-imidazo[4,5-b]pyridine-7-carboximidamide], 943 nM; for `N#Cc1cc(N/C(=N\O)c2ccnc3nc[nH]c23)ccc1F` [Example 90, N-(3-Cyano-4-fluorophenyl)-N′-hydroxy-1H-imidazo[4,5-b]pyridine-7-carboximidamide], 1050 nM.

`O/N=C(\Nc1ccc(C(F)(F)F)cc1)c1ccnc2nc[nH]c12` [Example 91, N′-Hydroxy-N-(4-(trifluoromethyl)phenyl)-1H-imidazo[4,5-b]pyridine-7-carboximidamide] yielded an EC50 of 2240 nM.

The molecule `COc1cccc(N/C(=N\O)c2ccnc3nc[nH]c23)c1` [Example 92, N′-Hydroxy-N-(3-methoxyphenyl)-1H-imidazo[4,5-b]pyridine-7-carboximidamide] yielded an EC50 of 3890 nM. In the case of `CC(C)c1cc(N/C(=N\O)c2ccnc3nc[nH]c23)ccc1F` [Example 93, N-(4-Fluoro-3-isopropylphenyl)-N′-hydroxy-1H-imidazo[4,5-b]pyridine-7-carboximidamide] it was 5100 nM; in that of `Cc1ccc(N/C(=N\O)c2ccnc3nc[nH]c23)cc1` [Example 94, N′-Hydroxy-N-(p-tolyl)-1H-imidazo[4,5-b]pyridine-7-carboximidamide], 6350 nM.
